According to DBAASP:
Converted amounts (≈) assume the structure as drawn.

Experiments:
Assay in all cases: ≥ marks a high value that may be exact or a test limit, other limits are often not marked, values filed in µg/mL are converted to µM
[1] = system: Staphylococcus aureus ATCC 6538
[2] = system: Pseudomonas aeruginosa ATCC 9027
[3] = system: Staphylococcus aureus ATCC 29213
[4] = system: Candida albicans ATCC 90028
[5] = system: Escherichia coli ATCC 25922
[6] = system: Pseudomonas aeruginosa ATCC 27853
[7] = system: Salmonella typhimurium KCTC 1926
Candida albicans = system: Candida albicans
[8] = system: Klebsiella pneumoniae ATCC 700603
Acinetobacter baumannii = system: Acinetobacter baumannii
[9] = system: Staphylococcus aureus ATCC 25923
[10] = system: Enterococcus faecalis ATCC 29212
Escherichia coli = system: Escherichia coli
Staphylococcus aureus = system: Staphylococcus aureus

Row | Compound | MIC [1] [µM] | MIC [2] [µM] | MIC [3] [µM] | MIC [4] [µM] | MIC [5] [µM] | MIC [6] [µM] | also measured
1 | CC(C)C[C@H](NC(=O)[C@H](C)NC(=O)[C@H](CCCCN)NC(=O)[C@H](CC(C)C)NC(=O)[C@H](C)NC(=O)[C@H](CCCCN)NC(=O)[C@H](CC(C)C)NC(=O)[C@H](CC(C)C)NC(=O)[C@H](C)NC(=O)[C@H](CCCCN)NC(=O)[C@H](CC(C)C)NC(=O)[C@H](C)NC(=O)[C@H](CCCCN)NC(=O)[C@H](C)NC(=O)[C@@H](N)Cc1ccccc1)C(N)=O [FAKALKALLKALKAL] | 3.13 (≈ 5 µg/mL) | > 125 | – | – | – | – | –
2 | CC(C)C[C@H](NC(=O)[C@H](CC(C)C)NC(=O)[C@H](CCCCN)NC(=O)[C@H](CCCCN)NC(=O)[C@H](C)NC(=O)[C@H](CC(C)C)NC(=O)[C@H](CCCCN)NC(=O)[C@H](C)NC(=O)[C@@H](N)Cc1ccccc1)C(N)=O [FAKLAKKLL] | 194 (≈ 200 µg/mL) | 97 (≈ 99.9 µg/mL) | – | – | – | – | –
3 | CC(C)C[C@H](NC(=O)[C@H](C)NC(=O)[C@H](Cc1ccccc1)NC(=O)[C@H](CCCCN)NC(=O)[C@H](CCCCN)NC(=O)[C@H](CC(C)C)NC(=O)[C@H](C)NC(=O)[C@H](CCCCN)NC(=O)[C@H](C)NC(=O)[C@H](CC(C)C)NC(=O)[C@H](CC(C)C)NC(=O)[C@H](CCCCN)NC(=O)[C@H](C)NC(=O)[C@@H](N)Cc1ccccc1)C(N)=O [FAKLLAKALKKFAL] | 32 (≈ 50 µg/mL) | 16 (≈ 25 µg/mL) | – | – | – | – | –
4 | CC(C)C[C@H](NC(=O)[C@H](CCCCN)NC(=O)[C@H](CC(C)C)NC(=O)[C@H](CCCCN)NC(=O)[C@H](C)NC(=O)[C@H](CC(C)C)NC(=O)[C@H](CCCCN)NC(=O)[C@H](C)NC(=O)[C@H](CC(C)C)NC(=O)[C@H](CC(C)C)NC(=O)[C@H](CCCCN)NC(=O)[C@H](C)NC(=O)[C@@H](N)Cc1ccccc1)C(N)=O [FAKLLAKLAKLKL] | 3.43 (≈ 5 µg/mL) | 34.3 (≈ 50 µg/mL) | – | – | – | – | –
5 | CC[C@H](C)[C@H](NC(=O)[C@H](CCCN=C(N)N)NC(=O)[C@H](CCC(N)=O)NC(=O)[C@@H](NC(=O)[C@@H](NC(=O)[C@H](CCCCN)NC(=O)[C@@H](N)CCCCN)[C@@H](C)CC)C(C)C)C(=O)N[C@@H](CCCCN)C(=O)N[C@@H](CC(=O)O)C(=O)N[C@@H](Cc1ccccc1)C(=O)N[C@@H](CC(C)C)C(=O)N[C@@H](CCCN=C(N)N)C(=O)O [KKIVQRIKDFLR] | – | – | 5 (≈ 7.72 µg/mL) | 10 (≈ 15.4 µg/mL) | 5 (≈ 7.72 µg/mL) | 10 (≈ 15.4 µg/mL) | –
6 | CC[C@H](C)[C@H](NC(=O)[C@H](CCCN=C(N)N)NC(=O)[C@H](C)NC(=O)[C@@H](NC(=O)[C@@H](NC(=O)[C@H](CCCN=C(N)N)NC(=O)[C@@H](N)CCCCN)[C@@H](C)CC)C(C)C)C(=O)N[C@@H](CCCCN)C(=O)N[C@@H](C)C(=O)N[C@@H](Cc1ccccc1)C(=O)N[C@@H](CC(C)C)C(=O)N[C@@H](CCCN=C(N)N)C(=O)O [KRIVARIKAFLR] | – | – | 2.5 (≈ 3.68 µg/mL) | 2.5 (≈ 3.68 µg/mL) | 1.25 (≈ 1.84 µg/mL) | 1.25 (≈ 1.84 µg/mL) | –
7 | CC[C@H](C)[C@H](NC(=O)[C@H](CCCCN)NC(=O)[C@H](CCC(N)=O)NC(=O)[C@@H](NC(=O)[C@@H](NC(=O)[C@H](CCCN=C(N)N)NC(=O)[C@@H](N)CCCCN)[C@@H](C)CC)C(C)C)C(=O)N[C@@H](CCCCN)C(=O)N[C@@H](CC(=O)O)C(=O)N[C@@H](Cc1ccccc1)C(=O)N[C@@H](CC(C)C)C(=O)N[C@@H](CCCN=C(N)N)C(=O)O [KRIVQKIKDFLR] | – | – | 10 (≈ 15.4 µg/mL) | 20 (≈ 30.9 µg/mL) | 5 (≈ 7.72 µg/mL) | 10 (≈ 15.4 µg/mL) | –
8 | CC[C@H](C)[C@H](NC(=O)[C@H](CCCN=C(N)N)NC(=O)[C@H](CCC(N)=O)NC(=O)[C@@H](NC(=O)[C@@H](NC(=O)[C@H](CCCN=C(N)N)NC(=O)[C@@H](N)CCCCN)[C@@H](C)CC)C(C)C)C(=O)N[C@@H](CCCCN)C(=O)N[C@@H](CC(=O)O)C(=O)N[C@@H](Cc1ccccc1)C(=O)N[C@@H](CC(C)C)C(=O)N[C@@H](C)C(=O)O [KRIVQRIKDFLA] | – | – | 40 (≈ 59.5 µg/mL) | ≥ 40 | 40 (≈ 59.5 µg/mL) | 40 (≈ 59.5 µg/mL) | –
9 | CC[C@H](C)[C@H](NC(=O)[C@@H](NC(=O)[C@@H](NC(=O)[C@H](CCCN=C(N)N)NC(=O)[C@@H](NC(=O)[C@@H](NC(=O)[C@H](CC(C)C)NC(=O)[C@@H]1CCCN1C(=O)[C@H](Cc1c[nH]c2ccccc12)NC(=O)[C@@H](NC(=O)[C@H](CCCN=C(N)N)NC(=O)[C@@H](N)CCCCN)C(C)C)C(C)C)[C@@H](C)CC)[C@@H](C)O)C(C)C)C(=O)N[C@@H](C)C(=O)NCC(=O)N[C@@H](Cc1ccc(O)cc1)C(=O)N[C@@H](CC(N)=O)C(=O)N[C@@H](CC(C)C)C(=O)N[C@@H](Cc1ccc(O)cc1)C(=O)N[C@@H](CCCN=C(N)N)C(=O)O [KRVWPLVIRTVIAGYNLYR] | – | – | – | – | – | – | MIC [7]: ≥ 32 µM
10 | CC(=O)N[C@@H](CCCCN)C(=O)N[C@@H](Cc1ccc(O)cc1)C(=O)N[C@H](C(=O)NCC(=O)N[C@@H](CCCCN)C(=O)N[C@@H](CS)C(=O)N[C@@H](CCCCN)C(=O)N[C@H](C(=O)N[C@@H](CCCCN)C(=O)N[C@@H](CCCCN)C(=O)N[C@@H](CC(N)=O)C(=O)N[C@@H](CCCCN)C(=O)N[C@@H](CS)C(=O)N[C@@H](CCCCN)C(N)=O)[C@@H](C)O)[C@@H](C)O [KYTGKCKTKKNKCK] | – | – | – | – | – | – | MIC (Candida albicans): 1.3 µM (≈ 2.21 µg/mL)
11 | CC[C@H](C)[C@H](NC(=O)[C@H](CC(C)C)NC(=O)[C@H](CCCCN)NC(=O)[C@H](CCCN=C(N)N)NC(=O)[C@H](CC(N)=O)NC(=O)[C@H](CC(C)C)NC(=O)[C@H](CCCCN)NC(=O)[C@H](Cc1c[nH]c2ccccc12)NC(=O)[C@@H](NC(=O)[C@@H](NC(=O)[C@H](CO)NC(=O)[C@H](Cc1ccccc1)NC(=O)[C@@H](N)CC(C)C)[C@@H](C)CC)[C@@H](C)CC)C(=O)N[C@@H](CCCCN)C(=O)N[C@@H](C)C(=O)O [LFSIIWKLNRKLIKA] | – | > 64 | – | – | 64 (≈ 118 µg/mL) | – | MIC [8]: > 64 µM; MIC (Acinetobacter baumannii): ≥ 64 µM; MIC [9]: > 64 µM
12 | CC(C)C[C@H](NC(=O)[C@H](CC(C)C)NC(=O)[C@H](CCCN=C(N)N)NC(=O)[C@H](CCCCN)NC(=O)[C@H](CCCN=C(N)N)NC(=O)[C@H](CC(C)C)NC(=O)[C@H](CCCCN)NC(=O)[C@H](CCCN=C(N)N)NC(=O)[C@H](CC(C)C)NC(=O)[C@H](Cc1cnc[nH]1)NC(=O)[C@H](CO)NC(=O)[C@H](C)NC(=O)[C@H](CC(C)C)NC(=O)[C@H](CCCN=C(N)N)NC(=O)[C@@H](NC(=O)[C@H](CC(C)C)NC(=O)[C@H](CCCN=C(N)N)NC(=O)[C@H](CCCCN)NC(=O)[C@H](CCCN=C(N)N)NC(=O)[C@H](CC(C)C)NC(=O)[C@H](CCCCN)NC(=O)[C@H](CCCN=C(N)N)NC(=O)[C@@H](N)CC(C)C)C(C)C)C(=O)O [LRKLRKRLVRLASHLRKLRKRLL] | – | – | 5.47 (≈ 16 µg/mL) | – | 2.05 (≈ 6 µg/mL) | 2.74 (≈ 8 µg/mL) | MIC [10]: > 10.9 µM; MIC (Acinetobacter baumannii): 2.05 µM (≈ 6 µg/mL)
13 | CC[C@H](C)[C@H](NC(=O)[C@H](CCCCN)NC(=O)[C@H](CS)NC(=O)[C@H](C)NC(=O)[C@@H](NC(=O)[C@H](Cc1ccccc1)NC(=O)[C@H](CCCCN)NC(=O)[C@H](CC(C)C)NC(=O)[C@H](CCCCN)NC(=O)[C@@H](NC(=O)[C@H](CCCCN)NC(=O)[C@H](CCCCN)NC(=O)[C@H](CC(C)C)NC(=O)[C@H](CC(N)=O)NC(=O)[C@H](CCCCN)NC(=O)[C@H](CC(C)C)NC(=O)[C@@H](NC(=O)[C@H](CO)NC(=O)[C@H](CC(C)C)NC(=O)[C@H](CCSC)NC(=O)[C@@H](N)CO)C(C)C)C(C)C)C(C)C)C(=O)N[C@@H](CC(N)=O)C(=O)N[C@@H](CCCCN)C(=O)N[C@@H](CCC(N)=O)C(=O)N[C@@H](CS)C(=O)O [SMLSVLKNLKKVKLKFVACKINKQC] | – | – | – | – | – | – | MIC (Escherichia coli): 200 µM (≈ 573 µg/mL); MIC (Staphylococcus aureus): > 200 µM; MIC (Candida albicans): > 200 µM
